Like-named read-outs stand apart in the source and are kept apart here.
Legend:
[1] = biological target: T1, Human opiate κ receptors (Homo sapiens, UniProt P41145); experiment: κ opioid receptor functional assay, [35S]GTPγS binding (assay C); assay type: biochemical; settings: for activation at 1 µM: 0.5 h, read-out: % activation functional assay at 1 μM
[2] = biological target: T1, Human opiate κ receptors; assay type: binding; design: expressed in transfected cells; host or cells: HEK-293 cell membranes
[3] = tested on: arachidonic acid-induced ear inflammation; assay type: in vivo, mice

T1 sequence (P41145 whole entry): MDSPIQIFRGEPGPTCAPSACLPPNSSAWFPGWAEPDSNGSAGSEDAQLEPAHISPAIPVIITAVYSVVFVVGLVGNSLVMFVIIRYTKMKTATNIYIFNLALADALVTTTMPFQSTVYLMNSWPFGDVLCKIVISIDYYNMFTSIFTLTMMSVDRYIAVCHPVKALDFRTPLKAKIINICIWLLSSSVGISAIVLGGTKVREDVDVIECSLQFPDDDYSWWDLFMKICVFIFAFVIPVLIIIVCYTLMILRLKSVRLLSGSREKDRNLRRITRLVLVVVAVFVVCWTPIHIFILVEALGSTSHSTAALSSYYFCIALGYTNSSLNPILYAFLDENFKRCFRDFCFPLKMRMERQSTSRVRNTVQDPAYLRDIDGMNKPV

CCCNS(=O)(=O)N1CCN(C(=O)Cc2ccc(Cl)c(Cl)c2)C2C(N3CCC(O)C3)CCCC21.Cl (centres unmarked) [Example 133]
% activation functional assay at 1 μM [1]: 105%
EC50 ([1]; read-out: GTPγS EC50): < 10 nM
% binding at 100 nM [2]: 74%

Cl.O=C(Cc1ccc(Cl)c(Cl)c1)N1CCN(C(=O)NCc2ccccc2)[C@H]2CCC[C@H](N3CCCC3)[C@H]21 (racemic) [Example 41]
% activation functional assay at 1 μM [1]: 81%
EC50 ([1]; read-out: GTPγS EC50): < 10 nM
% binding at 100 nM [2]: 92%

O=C(Cc1ccc(F)c(F)c1)N1CCN(S(=O)(=O)Cc2ccon2)[C@H]2CCC[C@H](N3CC[C@H](O)C3)[C@H]21 [Example 149]
% activation functional assay at 1 μM [1]: 97%
EC50 ([1]; read-out: GTPγS EC50): < 10 nM
% binding at 100 nM [2]: 81%

Cl.O=C(Cc1ccc(Cl)c(Cl)c1)N1CCN(S(=O)(=O)c2cn[nH]c2)C2CCCC(N3CCC(O)C3)C21 (centres unmarked) [Example 128]
% activation functional assay at 1 μM [1]: 95%
EC50 ([1]; read-out: GTPγS EC50): < 10 nM
% binding at 100 nM [2]: 92%

COC(=O)N1CCN(C(=O)Cc2ccc(F)c(Cl)c2)[C@@H]2[C@@H](N3CC[C@H](F)C3)CCC[C@@H]21 [Example 150]
% activation functional assay at 1 μM [1]: 92%
EC50 ([1]; read-out: GTPγS EC50): < 10 nM
% binding at 100 nM [2]: 97%

CN(C)S(=O)(=O)N1CCN(C(=O)Cc2ccc(Cl)c(Cl)c2)C2C(N3CCC(O)C3)CCCC21.Cl (centres unmarked) [Example 129]
% activation functional assay at 1 μM [1]: 104%
EC50 ([1]; read-out: GTPγS EC50): < 10 nM
% binding at 100 nM [2]: 80%

CS(=O)(=O)N1CCN(C(=O)Cc2ccc(Cl)c(F)c2)C2C(N3CCC(O)C3)CCCC21.Cl (centres unmarked) [Example 122]
% activation functional assay at 1 μM [1]: 105%
EC50 ([1]; read-out: GTPγS EC50): < 10 nM
increase in ear thickness ([3]; topical, versus vehicle control): dose dependently prevented the increase

COC(=O)N1CCN(C(=O)Cc2ccc(Cl)c(Cl)c2)[C@@H]2[C@@H](N(C)C)CCC[C@@H]21.Cl (racemic) [Example 17]
% activation functional assay at 1 μM [1]: 92%
EC50 ([1]; read-out: GTPγS EC50): < 10 nM
% binding at 100 nM [2]: 92%
% binding at 1 μM [2]: 97%

O=C(Cc1ccc(Cl)cc1)N1CCN(S(=O)(=O)Cc2ccon2)[C@H]2CCC[C@H](N3CC[C@H](O)C3)[C@H]21 [Example 146]
% activation functional assay at 1 μM [1]: 103%
EC50 ([1]; read-out: GTPγS EC50): < 10 nM
% binding at 100 nM [2]: 76%

Cl.O=C(Cc1ccc(Cl)c(Cl)c1)N1CCN(S(=O)(=O)N2CCCC2)C2CCCC(N3CCC(O)C3)C21 (centres unmarked) [Example 127]
% activation functional assay at 1 μM [1]: 100%
EC50 ([1]; read-out: GTPγS EC50): 10 to 100 nM
% binding at 100 nM [2]: 66%

COC(=O)N1CCN(C(=O)Cc2ccc([N+](=O)[O-])cc2)[C@@H]2[C@@H](N3CCCC3)CCC[C@@H]21.Cl (racemic) [Example 4]
% binding at 100 nM [2]: 43%

O=C(Cc1ccc(Cl)c(Cl)c1)N1CCN(S(=O)(=O)NC2CCCC2)[C@H]2CCC[C@H](N3CC[C@H](O)C3)[C@H]21 [Example 135]
% activation functional assay at 1 μM [1]: 105%
EC50 ([1]; read-out: GTPγS EC50): < 10 nM
% binding at 100 nM [2]: 76%

CC(C)OC(=O)C(=O)N1CCN(C(=O)Cc2ccc(Cl)c(Cl)c2)[C@@H]2[C@@H](N3CCCC3)CCC[C@@H]21.Cl [Example 123]
% activation functional assay at 1 μM [1]: 99%
EC50 ([1]; read-out: GTPγS EC50): < 10 nM
% binding at 100 nM [2]: 68%

CNS(=O)(=O)N1CCN(C(=O)Cc2ccc(Cl)c(Cl)c2)C2C(N3CCC(O)C3)CCCC21.Cl (centres unmarked) [Example 131]
% activation functional assay at 1 μM [1]: 104%
EC50 ([1]; read-out: GTPγS EC50): < 10 nM
% binding at 100 nM [2]: 78%

O=C(Cc1ccc(Cl)c(Cl)c1)N1CCN(S(=O)(=O)Cc2ccon2)[C@H]2CCC[C@H](N3CC[C@H](O)C3)[C@H]21 [Example 136]
% activation functional assay at 1 μM [1]: 108%
EC50 ([1]; read-out: GTPγS EC50): < 10 nM
% binding at 100 nM [2]: 96%

COC(=O)N1CCN(C(=O)Cc2cc(F)cc(F)c2)[C@@H]2[C@@H](N3CCCC3)CCC[C@@H]21.Cl (racemic) [Example 2]
% binding at 100 nM [2]: 41%

O=C(Cc1ccc(Cl)c(Cl)c1)N1CCN(S(=O)(=O)N2CCOCC2)[C@H]2CCC[C@H](N3CC[C@H](O)C3)[C@H]21 [Example 137]
% activation functional assay at 1 μM [1]: 101%
EC50 ([1]; read-out: GTPγS EC50): < 10 nM
% binding at 100 nM [2]: 71%

O=C(Cc1ccc(F)c(Cl)c1)N1CCN(S(=O)(=O)Cc2ccon2)[C@H]2CCC[C@H](N3CC[C@H](O)C3)[C@H]21 [Example 148]
% activation functional assay at 1 μM [1]: 93%
EC50 ([1]; read-out: GTPγS EC50): < 10 nM
% binding at 100 nM [2]: 92%

COC(=O)N1CCN(C(=O)Cc2ccc(Cl)c(Cl)c2)C2C(N3CCC(C(N)=O)C3)CCCC21.Cl (mixture of isomers) [Example 84]
% activation functional assay at 1 μM [1]: 99%
EC50 ([1]; read-out: GTPγS EC50): 10 to 100 nM
% binding at 100 nM [2]: 89%

COC(=O)N1CCN(C(=O)Cc2ccc(Cl)c(F)c2)[C@@H]2[C@@H](N3CC[C@H](O)C3)CCC[C@@H]21 [Example 112]
activation at 1 µM [1]: 93%
EC50 ([1]; GTPγS EC50 (nM)): < 10 nM
increase in ear thickness ([3]; mouse, in vivo): dose dependently prevented the increase

Cl.NCC(=O)N1CCN(C(=O)Cc2ccc(Cl)c(Cl)c2)[C@@H]2[C@@H](N3CCCC3)CCC[C@@H]21 (racemic) [Example 44]
% binding at 100 nM [2]: 41%

O=C(Cc1ccc(Cl)c(F)c1)N1CCN(S(=O)(=O)Cc2ccon2)[C@H]2CCC[C@H](N3CC[C@H](O)C3)[C@H]21 [Example 147]
% activation functional assay at 1 μM [1]: 105%
EC50 ([1]; read-out: GTPγS EC50): < 10 nM
% binding at 100 nM [2]: 88%

CCNS(=O)(=O)N1CCN(C(=O)Cc2ccc(Cl)c(Cl)c2)C2C(N3CCC(O)C3)CCCC21.Cl (centres unmarked) [Example 132]
% activation functional assay at 1 μM [1]: 106%
EC50 ([1]; read-out: GTPγS EC50): < 10 nM
% binding at 100 nM [2]: 71%

O=C(c1ccccc1)N1CCN(C(=O)Cc2ccc(Cl)c(Cl)c2)C2C(N3CCCC3)CCCC21 (racemic) [Example 31]
activation (% of control) at 1 μM [1]: 93 % of control
activation at 1 µM [1]: 93%

CC(C)NS(=O)(=O)N1CCN(C(=O)Cc2ccc(Cl)c(Cl)c2)[C@@H]2[C@@H](N3CC[C@H](O)C3)CCC[C@@H]21 [Example 134]
% activation functional assay at 1 μM [1]: 102%
EC50 ([1]; read-out: GTPγS EC50): < 10 nM
% binding at 100 nM [2]: 67%

O=C(c1cccs1)N1CCN(C(=O)Cc2ccc(Cl)c(Cl)c2)C2C(N3CCCC3)CCCC21 (racemic) [Example 30]
activation at 1 µM [1]: 110%

COC(=O)c1ccc(C(=O)N2CCN(C(=O)Cc3ccc(Cl)c(Cl)c3)C3C(N4CCCC4)CCCC32)nc1 (racemic) [Example 85]
activation at 1 µM [1]: 101%

CC(C)NC(=O)N1CCN(C(=O)Cc2ccc(Cl)c(Cl)c2)[C@@H]2[C@@H](N3CCCC3)CCC[C@@H]21 [Example 99]
activation at 1 µM [1]: 100%
EC50 ([1]; GTPγS EC50 (nM)): < 10 nM

COC(=O)N1CCN(C(=O)Cc2ccc(Cl)c(F)c2)C2C(N3CCCC3)CCCC21 (racemic) [Example 19]
activation at 1 µM [1]: 100%
EC50 ([1]; GTPγS EC50 (nM)): < 10 nM

COC(=O)COC(=O)N1CCN(C(=O)Cc2ccc(Cl)c(Cl)c2)C2C(N3CCCC3)CCCC21 (racemic) [Example 67]
activation at 1 µM [1]: 106%
EC50 ([1]; GTPγS EC50 (nM)): < 10 nM

CCOC(=O)COC(=O)N1CCN(C(=O)Cc2ccc(Cl)c(Cl)c2)C2C(N3CCCC3)CCCC21.Cl (centres unmarked) [Example 111]
% activation functional assay at 1 μM [1]: 105%
EC50 ([1]; read-out: GTPγS EC50): < 10 nM
% binding at 100 nM [2]: 105%

O=C(O)CCC(=O)N1CCN(C(=O)Cc2ccc(Cl)c(Cl)c2)[C@H]2[C@H]1CCC[C@@H]2N1CCCC1 (racemic) [AE, reference compound]
activation (% of control) at 1 μM [1]: 43 % of control
activation of the kappa opioid receptors at 1 μM [1]: no or little activation
EC50 ([1]; EC50 (nM) [35S]GTPγS binding): > 1000 nM

COC(=O)N1CCN(C(=O)Cc2ccc(C(F)(F)F)c(Cl)c2)C2C(N3CCCC3)CCCC21 (racemic) [Example 50]
activation at 1 µM [1]: 118%
EC50 ([1]; GTPγS EC50 (nM)): < 10 nM

COC(=O)N1CCN(C(=O)Cc2ccc(F)c(Cl)c2)C2C(N3CCCC3)CCCC21 (racemic) [Example 20]
activation at 1 µM [1]: 96%
EC50 ([1]; GTPγS EC50 (nM)): < 10 nM

Cl.O=C(Cc1ccc(Cl)c(Cl)c1)N1CCN(S(=O)(=O)NCCO)C2CCCC(N3CCC(O)C3)C21 (centres unmarked) [Example 130]
% activation functional assay at 1 μM [1]: 102%
EC50 ([1]; read-out: GTPγS EC50): 10 to 100 nM
% binding at 100 nM [2]: 70%

NC(=O)CNC(=O)N1CCN(C(=O)Cc2ccc(Cl)c(Cl)c2)C2C(N3CCCC3)CCCC21 (racemic) [Example 76]
activation at 1 µM [1]: 106%
EC50 ([1]; GTPγS EC50 (nM)): 10 to 100 nM

Cl.O=C(OCc1ccccc1)N1CCN(C(=O)Cc2ccc(Cl)c(Cl)c2)C2C(N3CCCC3)CCCC21 (centres unmarked) [Example 95]
% activation functional assay at 1 μM [1]: 104%
EC50 ([1]; read-out: GTPγS EC50): < 10 nM

CN(C)S(=O)(=O)N1CCN(C(=O)Cc2ccc(Cl)c(Cl)c2)[C@@H]2[C@@H](N3CCCC3)CCC[C@@H]21 [Example 98]
activation at 1 µM [1]: 105%
EC50 ([1]; GTPγS EC50 (nM)): < 10 nM

O=C(Cc1ccc(Cl)c(Cl)c1)N1CCN(Cc2cccnc2)C2CCCC(N3CCCC3)C21 (racemic) [Example 48]
activation (% of control) at 1 μM [1]: 100 % of control
activation at 1 µM [1]: 100%
EC50 ([1]; EC50 (nM) [35S]GTPγS binding): 4.99 nM
EC50 ([1]; GTPγS EC50 (nM)): < 10 nM

COC(=O)N1CCN(C(=O)Cc2ccc(C(F)(F)F)cc2)C2C1CCCC2N(C)C(C)C (racemic) [Example 14]
activation at 1 µM [1]: 104%
EC50 ([1]; GTPγS EC50 (nM)): < 10 nM

O=C(c1ccccc1)N1CCN(C(=O)Cc2ccc(Cl)c(Cl)c2)C2C(N3CCC(O)C3)CCCC21 (centres unmarked) [R, reference compound]
activation (% of control) at 1 μM [1]: 63 % of control

COC(=O)N1CCN(C(=O)Cc2c[nH]c3ccccc23)[C@@H]2[C@@H](N3CCCC3)CCC[C@@H]21.Cl (racemic) [Example 9]
% binding at 100 nM [2]: 43%

COC(=O)N1CCN(C(=O)Cc2ccc(Cl)c(Cl)c2)[C@H]2[C@H](N3CCCC3)CCC[C@@H]21 (single isomer, unassigned) [Reference compound C, reference compound]
activation at 1 µM [1]: 85%

COC(=O)N1CCN(C(=O)Cc2ccc(Cl)c(Cl)c2)C2C1CCCC2N(C)C(C)C (racemic) [Example 13]
activation at 1 µM [1]: 98%
EC50 ([1]; GTPγS EC50 (nM)): < 10 nM

O=C(c1ncccn1)N1CCN(C(=O)Cc2ccc(Cl)c(Cl)c2)C2C(N3CCCC3)CCCC21 (racemic) [Example 83]
% activation functional assay at 1 μM [1]: 111%

COC(=O)N1CCN(C(=O)Cc2cccc(Cl)c2)C2C(N3CCCC3)CCCC21 (racemic) [Example 46]
activation at 1 µM [1]: 96%
EC50 ([1]; GTPγS EC50 (nM)): < 10 nM
